According to US11000033B2, “Ketone or oxime compound, and herbicide” (NISSAN CHEMICAL CORPORATION, priority 2014, dated 2021):

Legend:
Format in all cases: in vivo
[1] = test system: Echinochloa oryzacola Vasing.; assay: Test Example 2: herbicidal activity, application during weed generation in submerged conditions (symbol A); conditions: Table 23; application herbicide amount 320 g/ha; grade 0-5 by criteria of Test Example 1
Summary of the method: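 Steps: fill pots with alluvial soil; add water to 4 cm depth; co-sow the three weeds; grow at 25° C. to 30° C. under glass; at 1–2 leaves, dose the floodwater with diluted emulsion; rate damage visually after 3 weeks.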

[2] = test system: directly sowed rice plant; assay: Test Example 3: effect on crop by foliage application, Wagner pot (symbol b); conditions: application herbicide amount 320 g/ha
Summary of the method: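 Greenhouse culture at 25–30 °C of seeded rice, Cyperus difformis, Leptochloa chinensis and Echinochloa crus-galli var. crus-galli, in alluvial soil held under 0.1–0.5 cm of water in a Wagner pot.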

Digitaria ciliaris = assay: Test Example 4: herbicidal effect by soil treatment (symbol F); conditions: application herbicide amount 320 g/ha
Summary of the method: (§1)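 Seeds were sown in sterilized diluvial soil, covered with about 1.5 cm of soil, and the soil surface was sprayed with a water-diluted emulsion of the compound at a predetermined rate. Plants grew in a greenhouse at 25° C. to 30° C.; effects were scored visually 3 weeks after application.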

Alopecurus myosuroides [3] = assay: Test Example 4: herbicidal effect by soil treatment (symbol J); conditions: application herbicide amount 320 g/ha
Summary of the method: as §1

Lolium multiflorum Lam. [4] = assay: Test Example 4: herbicidal effect by soil treatment (symbol K); conditions: application herbicide amount 320 g/ha
Summary of the method: as §1

Stellaria media = assay: Test Example 4: herbicidal effect by soil treatment (symbol P); conditions: application herbicide amount 320 g/ha
Summary of the method: as §1

corn = assay: Test Example 4: effect on crop by soil treatment (symbol c); conditions: application herbicide amount 320 g/ha
Summary of the method: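 Steps: fill box with sterilized diluvial soil; sow seed spot-like; cover with ~1.5 cm soil; grow in greenhouse (25° C. to 30° C.).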

rice = assay: Test Example 4: effect on crop by soil treatment (symbol b); conditions: application herbicide amount 320 g/ha
Summary of the method: (§2)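 Greenhouse culture at 25° C. to 30° C. followed sowing of seed in spots on sterilized diluvial soil with a soil cover close to 1.5 cm thick.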

wheat [5] = assay: Test Example 4: effect on crop by soil treatment (symbol e); conditions: application herbicide amount 320 g/ha
Summary of the method: as §2

beet = assay: Test Example 4: effect on crop by soil treatment (symbol f); conditions: application herbicide amount 320 g/ha
Summary of the method: as §2

rapeseed = assay: Test Example 4: effect on crop by soil treatment (symbol g); conditions: application herbicide amount 320 g/ha
Summary of the method: as §2

Alopecurus myosuroides [6] = assay: Test Example 5: herbicidal effect by foliage application, plastic box (symbol J); conditions: 320 g/ha, 3 weeks after application
Summary of the method: (§3)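 After sowing into sterilized diluvial soil and growing two weeks under glass at 25° C. to 30° C., seedlings receive a uniform foliar spray of diluted emulsion. Damage is judged visually three weeks on.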

Lolium multiflorum Lam. [7] = assay: Test Example 5: herbicidal effect by foliage application, plastic box (symbol K); conditions: 320 g/ha, 3 weeks after application
Summary of the method: as §3

rice plant = assay: Test Example 5: effect on crop by foliage application, plastic box (symbol b); conditions: 320 g/ha, 3 weeks after application
Summary of the method: (§4)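 Box culture: sterile diluvial soil, seeds spot-sown, ~1.5 cm cover, raised under glass at 25–30° C.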

wheat [8] = assay: Test Example 5: effect on crop by foliage application, plastic box (symbol e); conditions: 320 g/ha, 3 weeks after application
Summary of the method: as §4

| Structure (SMILES) | Herbicidal effect grade, A: Echinochloa oryzacola Vasing. [1] | effect on crop b (directly sowed rice plant), grade 0-5 [2] | F: Digitaria ciliaris, herbicidal effect grade (Digitaria ciliaris) | J: Alopecurus myosuroides, herbicidal effect grade (Alopecurus myosuroides [3]) | K: Lolium multiflorum Lam., herbicidal effect grade (Lolium multiflorum Lam. [4]) | P: Stellaria media, herbicidal effect grade (Stellaria media) | c: corn, effect on crop grade (corn) | b: directly sowed rice plant, effect on crop grade (rice) | e: wheat, effect on crop grade (wheat [5]) | f: beet, effect on crop grade (beet) | g: rapeseed, effect on crop grade (rapeseed) | J: Alopecurus myosuroides, herbicidal effect (criteria of Test Example 1) (Alopecurus myosuroides [6]) | K: Lolium multiflorum Lam., herbicidal effect (criteria of Test Example 1) (Lolium multiflorum Lam. [7]) | b: directly sowed rice plant, effect on crop (criteria of Test Example 1) (rice plant) | e: wheat, effect on crop (criteria of Test Example 1) (wheat [8]) | Herbicidal effect grade, F: Digitaria ciliaris (Digitaria ciliaris) | Herbicidal effect grade, J: Alopecurus myosuroides (Alopecurus myosuroides [3]) | Herbicidal effect grade, K: Lolium multiflorum Lam. (Lolium multiflorum Lam. [4]) | Herbicidal effect grade, P: Stellaria media (Stellaria media) | Effect on crop grade, c: corn (corn) | also measured |
| --- | --- | --- | --- | --- | --- | --- | --- | --- | --- | --- | --- | --- | --- | --- | --- | --- | --- | --- | --- | --- | --- |
| CON=C(C)CC1CC(O)=C(c2c(C)cc(-n3cccn3)cc2C)C1=O (stereo not drawn) [6-073] | 4 (Herbicidal ratio of 70% or higher and lower than 90%) | 5 (Herbicidal ratio of 90% or more (almost completely withered)) | 5 (Herbicidal ratio of 90% or more (almost completely withered)) | 2 (Herbicidal ratio of 20% or higher and lower than 40%) | 5 (Herbicidal ratio of 90% or more (almost completely withered)) | 0 (Herbicidal ratio of 5% or lower (almost no effect)) | 3 (Herbicidal ratio of 40% or higher and lower than 70%) | 5 (Herbicidal ratio of 90% or more (almost completely withered)) | 2 (Herbicidal ratio of 20% or higher and lower than 40%) | 0 (Herbicidal ratio of 5% or lower (almost no effect)) | 3 (Herbicidal ratio of 40% or higher and lower than 70%) | 5 (Herbicidal ratio of 90% or more (almost completely withered)) | 5 (Herbicidal ratio of 90% or more (almost completely withered)) | 5 (Herbicidal ratio of 90% or more (almost completely withered)) | 3 (Herbicidal ratio of 40% or higher and lower than 70%) |  |  |  |  |  |  |
| CON=C(C)CC1CC(OC(=O)N2CCOCC2)=C(c2c(C)cc(-c3ccc(F)c(Cl)c3)cc2C)C1=O (stereo not drawn) [6-093] | 5 (Herbicidal ratio of 90% or more (almost completely withered)) | 5 (Herbicidal ratio of 90% or more (almost completely withered)) |  |  |  |  |  |  |  |  |  | 5 (Herbicidal ratio of 90% or more (almost completely withered)) | 5 (Herbicidal ratio of 90% or more (almost completely withered)) | 4 (Herbicidal ratio of 70% or higher and lower than 90%) | 5 (Herbicidal ratio of 90% or more (almost completely withered)) | 5 (Herbicidal ratio of 90% or more (almost completely withered)) | 3 (Herbicidal ratio of 40% or higher and lower than 70%) | 1 (Herbicidal ratio of 5% or higher and lower than 20%) | 5 (Herbicidal ratio of 90% or more (almost completely withered)) | 0 (Herbicidal ratio of 5% or lower (almost no effect)) | Effect on crop grade, b: directly sowed rice plant (rice): 1 (Herbicidal ratio of 5% or higher and lower than 20%); Effect on crop grade, e: wheat (wheat [5]): 0 (Herbicidal ratio of 5% or lower (almost no effect)); Effect on crop grade, f: beet (beet): 0 (Herbicidal ratio of 5% or lower (almost no effect)); Effect on crop grade, g: rapeseed (rapeseed): 0 (Herbicidal ratio of 5% or lower (almost no effect)) |
| CC(=O)CC1CC(O)=C(c2c(C)cc(-c3ccccn3)cc2C)C1=O (stereo not drawn) [7-012] | 3 (Herbicidal ratio of 40% or higher and lower than 70%) | 5 (Herbicidal ratio of 90% or more (almost completely withered)) |  |  |  |  |  |  |  |  |  | 3 (Herbicidal ratio of 40% or higher and lower than 70%) | 5 (Herbicidal ratio of 90% or more (almost completely withered)) | 5 (Herbicidal ratio of 90% or more (almost completely withered)) | 1 (Herbicidal ratio of 5% or higher and lower than 20%) | 5 (Herbicidal ratio of 90% or more (almost completely withered)) | 2 (Herbicidal ratio of 20% or higher and lower than 40%) | 2 (Herbicidal ratio of 20% or higher and lower than 40%) | 0 (Herbicidal ratio of 5% or lower (almost no effect)) | 0 (Herbicidal ratio of 5% or lower (almost no effect)) | Effect on crop grade, b: directly sowed rice plant (rice): 5 (Herbicidal ratio of 90% or more (almost completely withered)); Effect on crop grade, e: wheat (wheat [5]): 0 (Herbicidal ratio of 5% or lower (almost no effect)); Effect on crop grade, f: beet (beet): 0 (Herbicidal ratio of 5% or lower (almost no effect)); Effect on crop grade, g: rapeseed (rapeseed): 0 (Herbicidal ratio of 5% or lower (almost no effect)) |
| CON=C(C)CC1CC(O)=C(c2c(C)cc(-c3ncccn3)cc2C)C1=O (mixture of isomers) [6-057] | 3 (Herbicidal ratio of 40% or higher and lower than 70%) | 5 (Herbicidal ratio of 90% or more (almost completely withered)) | 5 (Herbicidal ratio of 90% or more (almost completely withered)) | 3 (Herbicidal ratio of 40% or higher and lower than 70%) | 5 (Herbicidal ratio of 90% or more (almost completely withered)) | 0 (Herbicidal ratio of 5% or lower (almost no effect)) | 1 (Herbicidal ratio of 5% or higher and lower than 20%) | 5 (Herbicidal ratio of 90% or more (almost completely withered)) | 1 (Herbicidal ratio of 5% or higher and lower than 20%) | 0 (Herbicidal ratio of 5% or lower (almost no effect)) | 1 (Herbicidal ratio of 5% or higher and lower than 20%) | 5 (Herbicidal ratio of 90% or more (almost completely withered)) | 5 (Herbicidal ratio of 90% or more (almost completely withered)) | 5 (Herbicidal ratio of 90% or more (almost completely withered)) | 5 (Herbicidal ratio of 90% or more (almost completely withered)) |  |  |  |  |  |  |
| CON=C(C)CC1CC(O)=C(c2c(C)cc(-c3ccc(Cl)cc3F)cc2C)C1=O (stereo not drawn) [6-084] | 4 (Herbicidal ratio of 70% or higher and lower than 90%) | 5 (Herbicidal ratio of 90% or more (almost completely withered)) | 5 (Herbicidal ratio of 90% or more (almost completely withered)) | 5 (Herbicidal ratio of 90% or more (almost completely withered)) | 5 (Herbicidal ratio of 90% or more (almost completely withered)) | 3 (Herbicidal ratio of 40% or higher and lower than 70%) | 0 (Herbicidal ratio of 5% or lower (almost no effect)) | 2 (Herbicidal ratio of 20% or higher and lower than 40%) | 2 (Herbicidal ratio of 20% or higher and lower than 40%) | 0 (Herbicidal ratio of 5% or lower (almost no effect)) | 1 (Herbicidal ratio of 5% or higher and lower than 20%) | 5 (Herbicidal ratio of 90% or more (almost completely withered)) | 5 (Herbicidal ratio of 90% or more (almost completely withered)) | 5 (Herbicidal ratio of 90% or more (almost completely withered)) | 4 (Herbicidal ratio of 70% or higher and lower than 90%) |  |  |  |  |  |  |
